Test results taken from patent US20100209345A1, “Fluorinated Ligands for Targeting Peripheral Benzodiazepine Receptors” (Australian Nuclear Science & Technology Organisation, priority 2006, published 2010).

Legend:
[1] = target: T1, peripheral benzodiazepine receptors (Rattus norvegicus, UniProt P16257); test: In vivo blocking / competition of tracer uptake by pre-treatment with PBR and CBR ligands; conditions: rats
T1 construct: high uptake in the tissues which have known PBR sites; from tissue; host or cells: organs of living SD rats (brain and peripheral tissues), in vivo
Method: The criteria for significance were **p<0.01 (highly significant) and *p<0.05 (significant). No stars implies not statistical difference from normals or controls.
The biodistribution of PBR132* was undertaken in SD rats and analysis up to 4 h p.i. in the brain and peripheral tissues was performed. The specificity and selectivity of the tracer were assessed by pre-treatment with PBR and Central benzodiazepine receptor (CBR) specific ligands (1 mg/kg) 5 min prior to injection of PBR132*.
The biodistribution of PBR 147* was performed in SD rats and brain and peripheral tissues were analysised at 15, 30 min, 1, and 4 h p.i. The specificity and selectivity of the tracer was assessed by pre-treatment of the animals with the PBR ligands PK11195 and Ro 5-4864 and with Flumazenil for CBR at 1 mg/kg 5 min prior to injection of PBR 147*
The biodistribution of PBR102* and PBR111* were performed in SD rats and brain and peripheral tissues analysed at 15, 30 min, 1, and 4 h p.i. The specificity and selectivity of the tracers were assessed by pre-treatment with the PBR ligands PK11195 and Ro 5-4864 and with Flumazenil for CBR at 1 mg/kg 5 min prior to injection of the corresponding tracers.
The specificity and selectivity of the tracers were assessed by pre-treatment with the PBR ligands PK11195 and Ro 5-4864 and with Flumazenil for CBR at 1 mg/kg 5 min prior to injection of the corresponding tracers.

[2] = test system: central benzodiazepine receptors; test: In vitro binding, [3H]-Flumazenil, brain cortex membrane preparation; conditions: @ 10^−5M, [3H]-Flumazenil
Method: Non-specific binding was determined with Flumazenil (20 μM). In both cases, incubations were terminated by rapid filtration through Whatman GF/B glass fibre. Filters were immediately washed 3 times with 5 mL ice-cold 50 mM Tris/HCl at pH 7.4. Filters were counted in a β-scintillation counter (Packard) to measure the amount of bound radioactivity. The IC50 of the compounds for the peripheral benzodiazepine binding site and the central benzodiazepine receptor were calculated using Kell 6 software.

[3] = LogP HPLC

CBR, % @ 10^−5M [2] [% @ 10^−5M]	chromatographic logP [3]	Structure (SMILES)	Tracer uptake after pre-treatment with PK 11195 ([1]; PK 11195 1 mg/kg 5 min prior to tracer, PBR-expressing tissues (brain/peripheral organs, adrenals apart))	Tracer uptake after pre-treatment with Ro 5-4864 ([1]; Ro 5-4864 1 mg/kg 5 min prior to tracer, PBR-expressing tissues (brain/peripheral organs, adrenals apart))	Tracer uptake after pre-treatment with flumazenil (central benzodiazepine ligand) ([1]; flumazenil 1 mg/kg 5 min prior to tracer, brain or peripheral organs)	Tracer uptake after pre-treatment with the non-radioactive analogue ([1]; non-radioactive analogue 1 mg/kg, PBR-expressing tissues)
		CN(C(=O)Cc1c(-c2ccc(OCCC[18F])cc2)nc2c(Cl)cc(Cl)cn12)c1ccccc1 [PBR147*, 2-(2-(4-(3-fluoropropoxy)phenyl)-6,8-dichloroimidazo[1,2-a]pyridin-3-yl)-N-methyl-N-phenylacetamide]	blocking effect	blocking effect	does not reduce	blocking effect
50	3.16 ± 0.1	CCN(CC)C(=O)Cc1c(-c2ccc(OCCCF)cc2)nn2c(C)cc(C)nc12 [PBR 146, 2-(2-(4-(3-fluoropropoxy)phenyl)-5,7-dimethylpyrazolo[1,5-a]pyrimidin-3-yl)-N,N-diethylacetamide]				
